Test results as given in patent US5965718A, “Analogs of sarcodictyin and eleutherobin” (priority 1998, dated 1999).
Entries after “also recorded” stand apart in the source; their conditions may differ.

Columns and labels:
[1] = tested on: tubulin; ovarian cancer cells (1A9, 1A9PTX10, 1A9PTX22); conditions: in words; for biological activity (tubulin polymerization and/or cytotoxicity), SAR statement: compared with natural products 7 and 8; for biological activity on modification of the alcohol component of the ester group: compared with the methyl ester (compound 600)
Description: (§1) FIG. 21 tabulates cytotoxicity data of sarcodictyins with the following tubulin polymerization and cytotoxicity properties of sarcodictyins: (a) The tubulin polymerization measurements were performed at 37° C. except for adjustments in drug concentration ([…]) and incubation time (90 min). (b) The cytotoxicity experiments were carried out as previously described (Giannakakou et al. J. Biol. Chem. 1995, 272, 17118-17125; Nicolaou et al. Angew. Chem. Int. Ed. Engl. 1997, 36, 2097-2103).
(§2) The synthesized sarcodictyin library (shown in FIG. 20) was screened for induction of tubulin polymerization using the filtration calorimetric assay and […] at 37° C. (results are listed in FIG. 20; Bollag et al. Cancer Res. 1995, 55, 2325-2333). These investigations were then followed by cytotoxicity studies with ovarian cancer cells (1A9) including two taxol-resistant lines (1A9PTX10 and 1A9PTX22; Giannakakou et al. J. Biol. Chem. 1995, 272, 17118-17125). The data reveal a number of important structure activity relationships (SARs).

[2] = tested on: ovarian cancer cells (1A9); assay type: cell-based; conditions: 1A9 and taxol-resistant lines; in words, compared with natural substances 7 and 8; figures only in FIG. 21
Description: as §1, §2

[3] = tested on: taxol-resistant lines (1A9PTX10 and 1A9PTX22); assay: cytotoxicity against taxol-resistant tumor cell lines; assay type: cell-based; conditions: in words
Description: as §1, §2

tubulin = assay: induction of tubulin polymerization, filtration calorimetric assay; assay type: biochemical; conditions: 100 m compound at 37° C.; in words, compared with sarcodictyins A (7) and B (8); figures only in FIG. 20
Description: as §1, §2

SMILES	biological activity (tubulin polymerization and/or cytotoxicity), SAR statement [1]	cytotoxicity potency [2]	cytotoxicity / biological activity against the taxol-resistant cell lines [3]	tubulin polymerization properties / potencies (tubulin)	biological activity on modification of the alcohol component of the ester group [1]
COC(=O)/C1=C/[C@@H]2[C@@H](C(C)C)CC=C(C)[C@@H]2C[C@H](OC(=O)/C=C/c2ccccn2)[C@]2(C)C=C[C@@]1(OC)O2 [Compound 480]	considerable loss of activity				
COC(=O)/C1=C/[C@@H]2[C@@H](C(C)C)CC=C(C)[C@@H]2C[C@H](OC(=O)/C=C/c2csc(C)n2)[C@]2(C)C=C[C@@]1(OC)O2 [Compound 490]	considerable loss of activity				
CCOC(=O)/C1=C/[C@@H]2[C@@H](C(C)C)CC=C(C)[C@@H]2C[C@H](OC(=O)/C=C/c2coc(C)n2)[C@]2(C)C=C[C@@]1(OC)O2 [Compound 500]	considerable loss of activity				
COC(=O)C1=CC2C(CC(OC(=O)/C=C/c3cn(C)cn3)C3(C)C=CC1(OC)O3)C(C)=CCC2C(C)C (stereo not drawn) [Compound 600]	equal or superior biological activities	potencies comparable or higher that those of the natural substances	Particularly striking; also recorded: enhanced biological activity	superior tubulin polymerization properties to those of either sarcodictyins A (7) or B (8)	
CCOC(=O)C1=CC2C(CC(OC(=O)/C=C/c3cn(C)cn3)C3(C)C=CC1(OC)O3)C(C)=CCC2C(C)C (stereo not drawn) [Compound 610]	equal or superior biological activities	potencies comparable or higher that those of the natural substances	Particularly striking; also recorded: enhanced biological activity	not always in line with their cytotoxicity effects	enhancement of the biological activity
CO[C@]12C=C[C@](C)(O1)[C@@H](OC(=O)/C=C/c1cn(C)cn1)C[C@H]1C(C)=CC[C@H](C(C)C)[C@H]1/C=C\2C(=O)OCCCl [Compound 630]	equal or superior biological activities	potencies comparable or higher that those of the natural substances			reversal of the trend
CO[C@]12C=C[C@](C)(O1)[C@@H](OC(=O)/C=C/c1cn(C)cn1)C[C@H]1C(C)=CC[C@H](C(C)C)[C@H]1/C=C\2C(=O)OCCCCc1ccccc1 [Compound 660]		cytotoxicity comparable to, or better than, the natural products		modest	
CCCCOC(=O)/C1=C/[C@@H]2[C@@H](C(C)C)CC=C(C)[C@@H]2C[C@H](OC(=O)/C=C/c2cn(C)cn2)[C@]2(C)C=C[C@@]1(OC)O2 [Compound 670]			Particularly striking		
CCCOC(=O)/C1=C/[C@@H]2[C@@H](C(C)C)CC=C(C)[C@@H]2C[C@H](OC(=O)/C=C/c2cn(C)cn2)[C@]2(C)C=C[C@@]1(OC)O2 [Compound 680]			Particularly striking		enhancement of the biological activity
CO[C@]12C=C[C@](C)(O1)[C@@H](OC(=O)/C=C/c1cn(C)cn1)C[C@H]1C(C)=CC[C@H](C(C)C)[C@H]1/C=C\2C(=O)OCCOCc1ccccc1 [Compound 690]		cytotoxicity comparable to, or better than, the natural products		modest	
C=CCOC(=O)/C1=C/[C@@H]2[C@@H](C(C)C)CC=C(C)[C@@H]2C[C@H](OC(=O)/C=C/c2cn(C)cn2)[C@]2(C)C=C[C@@]1(OC)O2 [Compound 700]				not always in line with their cytotoxicity effects	enhancement of the biological activity
CO[C@]12C=C[C@](C)(O1)[C@@H](OC(=O)/C=C/c1cn(C)cn1)C[C@H]1C(C)=CC[C@H](C(C)C)[C@H]1/C=C\2C(=O)OCCC(C)C [Compound 710]					reversal of the trend
COC(OC)/C1=C/[C@@H]2[C@@H](C(C)C)CC=C(C)[C@@H]2C[C@H](OC(=O)/C=C/c2cn(C)cn2)[C@]2(C)C=C[C@@]1(OC)O2 [Compound 730]		potencies comparable or higher that those of the natural substances	Particularly striking		
CCCOC(=O)/C1=C/[C@@H]2[C@@H](C(C)C)CC=C(C)[C@@H]2C[C@H](OC(=O)/C=C/c2cn(C)cn2)[C@]2(C)C=C[C@@]1(OCC(F)(F)F)O2 [Compound 840]		overall decrease of cytotoxicity			
CCO[C@]12C=C[C@](C)(O1)[C@@H](OC(=O)/C=C/c1cn(C)cn1)C[C@H]1C(C)=CC[C@H](C(C)C)[C@H]1/C=C\2C(=O)OC [Compound 850]	equal or superior biological activities	potencies comparable or higher that those of the natural substances	Particularly striking	superior tubulin polymerization properties to those of either sarcodictyins A (7) or B (8)	
CO[C@]12C=C[C@](C)(O1)[C@@H](OC(=O)/C=C/c1cn(C)cn1)C[C@H]1C(C)=CC[C@H](C(C)C)[C@H]1/C=C\2C(=O)OCc1c2ccccc2cc2ccccc12 [Compound 920]	equal or superior biological activities		Particularly striking	modest	
COC(=O)/C1=C/[C@@H]2[C@@H](C(C)C)CC=C(C)[C@@H]2C[C@H](OC(=O)/C=C/c2ccccc2)[C@]2(C)C=C[C@@]1(OC)O2 [Compound 990]	only negligible biological activity				
COC(=O)/C1=C/[C@@H]2[C@@H](C(C)C)CC=C(C)[C@@H]2C[C@H](OC(=O)Nc2ccccc2)[C@]2(C)C=C[C@@]1(OC)O2 [Compound 1010]	complete loss of activity				
COC(=O)/C1=C/[C@@H]2[C@@H](C(C)C)CC=C(C)[C@@H]2C[C@H](OC(C)=O)[C@]2(C)C=C[C@@]1(OC)O2 [Compound 1070]	complete loss of activity				
CO[C@]12C=C[C@](C)(O1)[C@@H](OC(=O)/C=C/c1cn(C)cn1)C[C@H]1C(C)=CC[C@H](C(C)C)[C@H]1/C=C\2CO[C@@H]1OC[C@@H](O)[C@@H](O)[C@@H]1OC(C)=O [eleutherobin]	potent biological actions				
